Assay results published in PubChem BioAssay AID1963842 (Molecular Pharmacology Branch, DTP, NCI, 2024).

Tested on: 677734-321-R-J1-PDC complex spheroid viability
Assay: Anticancer human tumor 677734-321-R-J1-PDC patient-derived soft tissue sarcoma cell line growth inhibition [POLQ]
Conditions: for IC50: curve of first compound; for viability, T/C: stronger effect = lower value
Outline: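 Complex spheroid viability model combining PDC tumour cells with endothelial (HUVEC) and MSC stromal cells. Novobiocin, ART-558 or RP6685 were tested singly and in combination with standard and investigational anticancer drugs. Each was titrated in half-log steps from near clinical Cmax, or from 10 microM where Cmax was unknown.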
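Further: spheroids exposed to compounds for one week.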
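Wherever viability, T/C is given: 100% = vehicle DMSO treated spheroids.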

CC(=O)O[C@H]1C(=O)[C@@]2(C)[C@H]([C@H](OC(=O)c3ccccc3)[C@]3(O)C[C@H](OC(=O)[C@H](O)[C@@H](NC(=O)c4ccccc4)c4ccccc4)C(C)=C1C3(C)C)[C@]1(OC(C)=O)CO[C@@H]1C[C@@H]2O + Nc1ccc(C#CCN(C(=O)Cc2ncc(C(F)(F)F)cc2C(F)(F)F)c2ccc(F)cc2)nn1
IC50 (second compound 0.0316 µM): < 9.49 nM
IC50 (second compound 0.1 µM): < 9.49 nM
IC50 (second compound 0.316 µM): < 9.49 nM
IC50 (second compound 1 µM): < 9.49 nM
IC50 (second compound 3.16 µM): < 9.49 nM
IC50 (second compound 10 µM): < 9.49 nM
viability, T/C (second compound 0.0316 µM, first compound 0.00949 µM): 21.6%
viability, T/C (second compound 0.0316 µM, first compound 0.03 µM): 15%
viability, T/C (second compound 0.0316 µM, first compound 0.0949 µM): 13.9%
viability, T/C (second compound 0.0316 µM, first compound 0.3 µM): 14.6%
viability, T/C (second compound 0.0316 µM, first compound 0.949 µM): 14.9%
viability, T/C (second compound 0.0316 µM, first compound 3 µM): 17.6%
viability, T/C (second compound 0.1 µM, first compound 0.00949 µM): 32.9%
viability, T/C (second compound 0.1 µM, first compound 0.03 µM): 18.3%
viability, T/C (second compound 0.1 µM, first compound 0.0949 µM): 14.2%
viability, T/C (second compound 0.1 µM, first compound 0.3 µM): 13.9%
viability, T/C (second compound 0.1 µM, first compound 0.949 µM): 14.3%
viability, T/C (second compound 0.1 µM, first compound 3 µM): 16.1%
viability, T/C (second compound 0.316 µM, first compound 0.00949 µM): 21.7%
viability, T/C (second compound 0.316 µM, first compound 0.03 µM): 17.9%
viability, T/C (second compound 0.316 µM, first compound 0.0949 µM): 14.7%
viability, T/C (second compound 0.316 µM, first compound 0.3 µM): 11.6%
viability, T/C (second compound 0.316 µM, first compound 0.949 µM): 13.8%
viability, T/C (second compound 0.316 µM, first compound 3 µM): 15.7%
viability, T/C (second compound 1 µM, first compound 0.00949 µM): 32.7%
viability, T/C (second compound 1 µM, first compound 0.03 µM): 17.1%
viability, T/C (second compound 1 µM, first compound 0.0949 µM): 16.6%
viability, T/C (second compound 1 µM, first compound 0.3 µM): 15%
viability, T/C (second compound 1 µM, first compound 0.949 µM): 13.3%
viability, T/C (second compound 1 µM, first compound 3 µM): 12.2%
viability, T/C (second compound 3.16 µM, first compound 0.00949 µM): 34.1%
viability, T/C (second compound 3.16 µM, first compound 0.03 µM): 16.9%
viability, T/C (second compound 3.16 µM, first compound 0.0949 µM): 11.8%
viability, T/C (second compound 3.16 µM, first compound 0.3 µM): 13.4%
viability, T/C (second compound 3.16 µM, first compound 0.949 µM): 13.5%
viability, T/C (second compound 3.16 µM, first compound 3 µM): 16.4%
viability, T/C (second compound 10 µM, first compound 0.00949 µM): 28.8%
viability, T/C (second compound 10 µM, first compound 0.03 µM): 16.4%
viability, T/C (second compound 10 µM, first compound 0.0949 µM): 12.6%
viability, T/C (second compound 10 µM, first compound 0.3 µM): 13.4%
viability, T/C (second compound 10 µM, first compound 0.949 µM): 13%
viability, T/C (second compound 10 µM, first compound 3 µM): 16.8%

CC[C@@]1(O)C(=O)OCc2c1cc1n(c2=O)Cc2cc3c(CN(C)C)c(O)ccc3nc2-1 + Nc1ccc(C#CCN(C(=O)Cc2ncc(C(F)(F)F)cc2C(F)(F)F)c2ccc(F)cc2)nn1
IC50 (second compound 0.0316 µM): 19.9 nM
IC50 (second compound 0.1 µM): 21.2 nM
IC50 (second compound 0.316 µM): 22.1 nM
IC50 (second compound 1 µM): 22.6 nM
IC50 (second compound 3.16 µM): 22.4 nM
IC50 (second compound 10 µM): 22.1 nM
viability, T/C (second compound 0.0316 µM, first compound 0.000316 µM): 108%
viability, T/C (second compound 0.0316 µM, first compound 0.001 µM): 115%
viability, T/C (second compound 0.0316 µM, first compound 0.00316 µM): 117%
viability, T/C (second compound 0.0316 µM, first compound 0.01 µM): 86.2%
viability, T/C (second compound 0.0316 µM, first compound 0.0316 µM): 25.9%
viability, T/C (second compound 0.0316 µM, first compound 0.1 µM): 15.3%
viability, T/C (second compound 0.1 µM, first compound 0.000316 µM): 99.3%
viability, T/C (second compound 0.1 µM, first compound 0.001 µM): 97.7%
viability, T/C (second compound 0.1 µM, first compound 0.00316 µM): 99.2%
viability, T/C (second compound 0.1 µM, first compound 0.01 µM): 87.3%
viability, T/C (second compound 0.1 µM, first compound 0.0316 µM): 30.3%
viability, T/C (second compound 0.1 µM, first compound 0.1 µM): 13%
viability, T/C (second compound 0.316 µM, first compound 0.000316 µM): 116%
viability, T/C (second compound 0.316 µM, first compound 0.001 µM): 105%
viability, T/C (second compound 0.316 µM, first compound 0.00316 µM): 90.4%
viability, T/C (second compound 0.316 µM, first compound 0.01 µM): 98.2%
viability, T/C (second compound 0.316 µM, first compound 0.0316 µM): 28.1%
viability, T/C (second compound 0.316 µM, first compound 0.1 µM): 14.9%
viability, T/C (second compound 1 µM, first compound 0.000316 µM): 110%
viability, T/C (second compound 1 µM, first compound 0.001 µM): 99.9%
viability, T/C (second compound 1 µM, first compound 0.00316 µM): 103%
viability, T/C (second compound 1 µM, first compound 0.01 µM): 89.9%
viability, T/C (second compound 1 µM, first compound 0.0316 µM): 33.6%
viability, T/C (second compound 1 µM, first compound 0.1 µM): 12.8%
viability, T/C (second compound 3.16 µM, first compound 0.000316 µM): 102%
viability, T/C (second compound 3.16 µM, first compound 0.001 µM): 102%
viability, T/C (second compound 3.16 µM, first compound 0.00316 µM): 104%
viability, T/C (second compound 3.16 µM, first compound 0.01 µM): 102%
viability, T/C (second compound 3.16 µM, first compound 0.0316 µM): 27.7%
viability, T/C (second compound 3.16 µM, first compound 0.1 µM): 17.6%
viability, T/C (second compound 10 µM, first compound 0.000316 µM): 135%
viability, T/C (second compound 10 µM, first compound 0.001 µM): 106%
viability, T/C (second compound 10 µM, first compound 0.00316 µM): 92.5%
viability, T/C (second compound 10 µM, first compound 0.01 µM): 83.7%
viability, T/C (second compound 10 µM, first compound 0.0316 µM): 29.4%
viability, T/C (second compound 10 µM, first compound 0.1 µM): 13.8%
